“And” between values parts separate entries of the source, which are not always exact repeats. Equal entries are not always repeated.

A word on the IC50: it is the concentration that inhibits the measured activity by half. A higher IC50 goes with weaker potency in that assay.

One test concerns the target Dipeptidyl peptidase 4 (Homo sapiens, UniProt P27487). Put plainly: Inhibitory activity against Dipeptidylpeptidase IV (DPP IV) in human acute lymphoblastic leukemia MOLT-4 cell line. Type of test: cell-based.
Test [1] in a line: Cytotoxicity in human embryonic lung flbroblast Wl-38 cells using WST-1 viability assay. (Formazan colour is commonly taken as a measure of viable cells.)
For the next test, the target named is Aminopeptidase N (Homo sapiens, UniProt P15144). In words: Inhibitory activity against aminopeptidase N (APN) in human acute lymphoblastic leukemia MOLT-4 cell line. Type of test: cell-based.
Chain of Aminopeptidase N (P15144 whole entry): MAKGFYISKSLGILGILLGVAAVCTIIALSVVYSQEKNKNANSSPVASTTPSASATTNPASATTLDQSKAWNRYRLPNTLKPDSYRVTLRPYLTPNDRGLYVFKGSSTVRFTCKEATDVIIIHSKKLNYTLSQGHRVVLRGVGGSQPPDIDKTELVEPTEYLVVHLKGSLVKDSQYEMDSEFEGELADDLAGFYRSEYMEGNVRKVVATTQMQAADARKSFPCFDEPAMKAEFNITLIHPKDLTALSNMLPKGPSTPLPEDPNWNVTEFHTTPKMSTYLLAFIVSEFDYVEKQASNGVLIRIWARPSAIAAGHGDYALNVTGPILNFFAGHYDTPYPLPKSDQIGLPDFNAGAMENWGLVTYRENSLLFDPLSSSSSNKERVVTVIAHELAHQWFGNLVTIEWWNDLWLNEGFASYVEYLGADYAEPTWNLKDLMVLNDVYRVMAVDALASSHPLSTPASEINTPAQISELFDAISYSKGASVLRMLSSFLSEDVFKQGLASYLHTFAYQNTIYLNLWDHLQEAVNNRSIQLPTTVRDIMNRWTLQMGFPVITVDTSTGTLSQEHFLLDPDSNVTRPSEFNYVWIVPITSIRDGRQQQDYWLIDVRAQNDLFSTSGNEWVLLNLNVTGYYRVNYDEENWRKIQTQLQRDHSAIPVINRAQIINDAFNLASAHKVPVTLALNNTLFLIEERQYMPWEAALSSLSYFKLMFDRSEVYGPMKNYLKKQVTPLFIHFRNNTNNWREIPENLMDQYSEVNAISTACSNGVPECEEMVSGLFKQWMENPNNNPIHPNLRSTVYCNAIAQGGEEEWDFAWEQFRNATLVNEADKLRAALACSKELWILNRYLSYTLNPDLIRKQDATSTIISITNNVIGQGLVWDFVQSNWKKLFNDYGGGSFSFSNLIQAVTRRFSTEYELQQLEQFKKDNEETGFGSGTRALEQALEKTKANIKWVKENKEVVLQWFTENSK

Chain of Dipeptidyl peptidase 4 (P27487 whole entry): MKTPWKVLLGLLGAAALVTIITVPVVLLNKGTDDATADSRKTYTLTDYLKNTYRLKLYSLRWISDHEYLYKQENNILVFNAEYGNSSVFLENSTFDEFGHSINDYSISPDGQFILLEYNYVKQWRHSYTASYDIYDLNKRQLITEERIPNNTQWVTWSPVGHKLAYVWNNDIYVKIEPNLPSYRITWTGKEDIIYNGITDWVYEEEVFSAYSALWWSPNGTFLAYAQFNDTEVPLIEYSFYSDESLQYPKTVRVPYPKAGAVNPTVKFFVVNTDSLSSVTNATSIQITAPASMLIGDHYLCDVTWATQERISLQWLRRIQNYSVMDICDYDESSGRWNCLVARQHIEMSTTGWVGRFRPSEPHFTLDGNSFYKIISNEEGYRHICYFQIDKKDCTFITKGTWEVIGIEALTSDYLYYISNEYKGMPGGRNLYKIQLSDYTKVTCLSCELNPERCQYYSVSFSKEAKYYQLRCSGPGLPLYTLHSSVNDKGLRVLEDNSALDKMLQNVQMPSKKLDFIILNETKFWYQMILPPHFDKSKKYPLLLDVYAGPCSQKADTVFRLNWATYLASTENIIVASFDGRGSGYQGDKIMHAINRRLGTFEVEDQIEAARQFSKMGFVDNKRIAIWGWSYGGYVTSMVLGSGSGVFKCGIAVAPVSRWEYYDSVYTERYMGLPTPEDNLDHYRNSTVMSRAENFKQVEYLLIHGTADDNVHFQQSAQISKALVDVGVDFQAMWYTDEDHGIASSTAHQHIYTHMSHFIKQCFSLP

Regarding `CC(C)c1cccc(C(C)C)c1N1C(=O)c2c(F)c(F)c(F)c(F)c2C1=S`, the concentration for half-maximal inhibition (IC50) against Dipeptidyl peptidase 4 is 30.3 µM and 30.4 µM; in test [1], > 100 µg/mL and > 253 µM.

`Cc1cccc(C)c1N1C(=O)c2cccc(N)c2C1=O`: the 50% inhibitory concentration (IC50) was 109 µM on Aminopeptidase N; 60.1 µM against Dipeptidyl peptidase 4; > 100 µg/mL and > 376 µM in test [1].

As for `CC(C)c1cccc(C(C)C)c1N1C(=O)c2ccc([N+](=O)[O-])cc2C1=O`, the 50% inhibitory concentration (IC50) on Dipeptidyl peptidase 4 was greater than 284 µM; in test [1], 42.7 µg/mL and 121 µM.

Regarding `CC(C)c1cccc(C(C)C)c1N1C(=O)c2ccc(N)cc2C1=O`, the IC50 in test [1] was > 100 µg/mL and > 310 µM.

As for `Cc1cccc(C)c1N1C(=O)c2ccc(O)cc2C1=O`, the 50% inhibitory concentration (IC50) in test [1] is > 100 µg/mL and > 374 µM.

Take `Cc1cccc(C)c1N1C(=O)c2ccccc2C1=O`: the half-maximal inhibitory concentration (IC50) was greater than 398 µM against Dipeptidyl peptidase 4 and greater than 100 µg/mL in test [1].

With `CSc1ccccc1N1C(=O)c2cccc([N+](=O)[O-])c2C1=O`, the IC50 against Aminopeptidase N was greater than 318 µM; on Dipeptidyl peptidase 4 it was greater than 318 µM; in test [1], greater than 100 µg/mL.

As to `CC(C)c1cccc(C(C)C)c1N1C(=O)c2ccccc2C1=S`, the IC50 was > 309 µM and 309 µM against Aminopeptidase N; 57.8 µM at Dipeptidyl peptidase 4; 60.5 µg/mL and 187 µM in test [1].

For the compound `Cc1cccc(C)c1N1C(=O)c2cccc(O)c2C1=O`, the IC50 is greater than 374 µM at Dipeptidyl peptidase 4 and greater than 100 µg/mL in test [1].

As to `Cc1cccc(C)c1N1C(=O)c2cccc([N+](=O)[O-])c2C1=O`, the figures for the IC50 (at Aminopeptidase N; at Dipeptidyl peptidase 4; in test [1]) were greater than 338 µM, greater than 338 µM and greater than 100 µg/mL, respectively.

For `Cc1cccc(C)c1N1C(=O)c2ccc(N)cc2C1=O`, the concentration for half-maximal inhibition (IC50) in test [1] is > 100 µg/mL and > 376 µM.

As to `CCc1cccc(CC)c1N1C(=O)c2ccc(O)cc2C1=O`, in test [1], the concentration for half-maximal inhibition (IC50) is 52 µg/mL and 176 µM.

With `CC(C)c1cccc(C(C)C)c1N1C(=O)c2ccc(O)cc2C1=O`, in test [1], the IC50 is 12.7 µg/mL and 39.3 µM.

Take `CC(C)c1cccc(C(C)C)c1N1C(=O)c2cccc([N+](=O)[O-])c2C1=O`: the IC50 at Dipeptidyl peptidase 4 was greater than 284 µM; in test [1] it was 93.1 µg/mL and 264 µM.

Turning to `CSc1ccccc1N1C(=O)c2cccc(O)c2C1=O`, the IC50 against Aminopeptidase N was 134 µM; against Dipeptidyl peptidase 4, 226 µM; in test [1], > 100 µg/mL and > 350 µM.

On to `CC(C)c1cccc(C(C)C)c1N1C(=S)c2c(F)c(F)c(F)c(F)c2C1=S`, for which the IC50 was 36.7 µM against Dipeptidyl peptidase 4; 1.4 µg/mL and 3.4 µM in test [1].

On to `CCc1cccc(CC)c1N1C(=O)c2cccc(O)c2C1=O`, for which the IC50 was 43.3 µM against Dipeptidyl peptidase 4; > 100 µg/mL and > 339 µM in test [1].

For the compound `CC(C)c1cccc(C(C)C)c1N1C(=O)c2cccc(O)c2C1=O`, in test [1], the half-inhibitory concentration (IC50) was > 100 µg/mL and > 309 µM.

On to `Cc1cccc(C)c1N1C(=O)c2ccc([N+](=O)[O-])cc2C1=O`, for which the IC50 against Aminopeptidase N is greater than 338 µM; on Dipeptidyl peptidase 4, greater than 338 µM; in test [1], greater than 100 µg/mL.

Take `CC(C)c1cccc(C(C)C)c1N1C(=O)c2ccccc2C1=O`: the IC50 is greater than 325 µM against Dipeptidyl peptidase 4 and greater than 100 µg/mL in test [1].

(Values after ChEMBL document CHEMBL1131945, “Nonpeptide small-molecular inhibitors of dipeptidyl peptidase IV: N-phenylphthalimide analogs” (Bioorg Med Chem Lett, 1999).)
